Source: ChEMBL document CHEMBL1141039, “Hepatitis C virus NS3-4A serine protease inhibitors: SAR of P'2 moiety with improved potency” (Bioorg Med Chem Lett, 2005)
Numbered stars: 1 amine (or outer) side, 2 acyl side, 3 side chain; on linkers, the order of the positions; unused ones are H or OH. Square brackets hold non-standard residues; d marks the D form. Peptide text beside a SMILES is read from it. * marks the point of attachment. Gly(piperidin-4-yl) = N[C@H](C(=O)O)C1CCNCC1; 2Nal = N[C@@H](Cc1ccc2ccccc2c1)C(=O)O; Isobutyloxycarbonyl = CC(C)COC(=O)*; Gly(cPent) = N[C@H](C(=O)O)C1CCCC1; X1 = CCCC(N[*:1])C(=O)C(=O)[*:2]; hPhe = N[C@@H](CCc1ccccc1)C(=O)O; Aad = N[C@@H](CCCC(=O)O)C(=O)O; Cha = N[C@@H](CC1CCCCC1)C(=O)O; Chg = N[C@H](C(=O)O)C1CCCCC1; Phg = N[C@H](C(=O)O)c1ccccc1; Tle = CC(C)(C)[C@H](N)C(=O)O; hSer = N[C@@H](CCO)C(=O)O; Nle = CCCC[C@H](N)C(=O)O; Boc = CC(C)(C)OC(=O)*; OBn = c1ccc(CO*)cc1; Bn = c1ccc(C*)cc1; OtBu = CC(C)(C)O*; tBu = CC(C)(C)*

What follows are compounds tested against NS3 (Hepatitis C virus, UniProt A3EZJ3) (assay: Inhibitory activity against Hepatitis C virus NS3 serine protease in continuous spectrophotometric assay).
Design: species or system Hepacivirus hominis

Sequence of NS3 (A3EZJ3 whole entry): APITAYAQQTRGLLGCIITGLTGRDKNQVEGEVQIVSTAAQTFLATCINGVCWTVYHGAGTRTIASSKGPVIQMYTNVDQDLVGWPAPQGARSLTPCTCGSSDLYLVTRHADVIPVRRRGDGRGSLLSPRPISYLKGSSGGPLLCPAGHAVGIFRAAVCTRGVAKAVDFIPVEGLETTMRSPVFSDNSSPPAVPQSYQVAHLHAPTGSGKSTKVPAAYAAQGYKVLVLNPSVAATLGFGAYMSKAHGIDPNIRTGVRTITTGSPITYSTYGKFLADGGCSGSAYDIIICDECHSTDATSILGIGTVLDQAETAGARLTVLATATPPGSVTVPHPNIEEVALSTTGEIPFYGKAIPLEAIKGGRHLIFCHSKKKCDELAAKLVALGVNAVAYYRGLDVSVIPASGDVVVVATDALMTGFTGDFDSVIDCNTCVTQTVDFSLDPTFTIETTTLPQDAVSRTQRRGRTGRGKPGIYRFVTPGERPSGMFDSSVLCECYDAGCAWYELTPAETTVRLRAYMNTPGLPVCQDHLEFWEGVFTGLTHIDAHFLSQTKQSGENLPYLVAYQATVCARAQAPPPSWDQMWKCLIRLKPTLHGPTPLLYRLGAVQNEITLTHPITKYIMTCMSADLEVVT

Row | Ki [µM] | Compound
1 | 3.5 | CCCC(NC(=O)[C@@H]1CCCN1C(=O)[C@@H](NC(=O)OCC(C)C)C(C)C)C(=O)C(=O)NCC(=O)N[C@@H](COCc1ccccc1)C(N)=O (some centres not stated) (Isobutyloxycarbonyl-VP[X1]GS(Bn)-NH2)
2 | 0.36 | CCCC(NC(=O)[C@@H]1CCCN1C(=O)[C@@H](NC(=O)OCC(C)C)C1CCCCC1)C(=O)C(=O)NCC(=O)N[C@H](C(N)=O)c1ccccc1 (some centres not stated) (Isobutyloxycarbonyl-[Chg]P[X1]G[Phg]-NH2)
3 | 8 | CCCC(NC(=O)[C@@H]1CCCN1C(=O)[C@@H](NC(=O)OCC(C)C)C(C)C)C(=O)C(=O)NCC(=O)N[C@@H](CC1CCCCC1)C(N)=O (some centres not stated) (Isobutyloxycarbonyl-VP[X1]G[Cha]-NH2)
4 | 55 | CCCC(NC(=O)[C@@H]1CCCN1C(=O)[C@@H](NC(=O)OCC(C)C)C(C)C)C(=O)C(=O)NCC(=O)N[C@@H](CC(=O)OC)C(=O)OC (some centres not stated) (Isobutyloxycarbonyl-VP[X1]GD(OMe)-OMe)
5 | 15 | CCCC(NC(=O)[C@@H]1CCCN1C(=O)[C@@H](NC(=O)OCC(C)C)C(C)C)C(=O)C(=O)NCC(=O)N[C@H](C(=O)OC)[C@@H](C)CC (some centres not stated) (Isobutyloxycarbonyl-VP[X1]GI-OMe)
6 | 15 | CCCC(NC(=O)[C@@H]1CCCN1C(=O)[C@@H](NC(=O)OCC(C)C)C(C)C)C(=O)C(=O)NCC(=O)N[C@@H](Cc1ccccc1)C(N)=O (some centres not stated) (Isobutyloxycarbonyl-VP[X1]GF-NH2)
7 | 45 | CCCC(NC(=O)[C@@H]1CCCN1C(=O)[C@@H](NC(=O)OC(C)(C)C)C1CCCCC1)C(=O)C(=O)NCC(=O)NCc1ccccc1 (some centres not stated)
8 | 6.4 | CCCC(NC(=O)[C@H](CC(C)C)NC(=O)[C@@H](NC(=O)OCC(C)C)C1CCCCC1)C(=O)C(=O)NCC(=O)N[C@H](C(=O)O)C1CCNCC1 (some centres not stated) (Isobutyloxycarbonyl-[Chg]L[X1]G[Gly(piperidin-4-yl)]-OH)
9 | 82 | CCCC(NC(=O)[C@@H]1CCCN1C(=O)[C@@H](NC(=O)OCC(C)C)C(C)C)C(=O)C(=O)NCC(=O)N[C@@H](CCCCN)C(N)=O (some centres not stated) (Isobutyloxycarbonyl-VP[X1]GK-NH2)
10 | 3.3 | CCCC(NC(=O)[C@H](CC(C)C)NC(=O)[C@@H](NC(=O)OCC(C)C)C1CCCCC1)C(=O)C(=O)NCC(=O)N[C@H](C(=O)O)C1CCN(C(=O)OC(C)(C)C)CC1 (some centres not stated)
11 | 20 | CCCC(NC(=O)[C@@H]1CCCN1C(=O)[C@@H](NC(=O)OCC(C)C)C(C)C)C(=O)C(=O)NCC(=O)N[C@@H](CCC(=O)OCC)C(=O)OC (some centres not stated) (Isobutyloxycarbonyl-VP[X1]GE(OEt)-OMe)
12 | 53 | CCCC(NC(=O)[C@@H]1CCCN1C(=O)[C@@H](NC(=O)OCC(C)C)C(C)C)C(=O)C(=O)NCC(=O)N[C@H](C(N)=O)C(C)(C)C (some centres not stated) (Isobutyloxycarbonyl-VP[X1]G[Tle]-NH2)
13 | 18 | CCCC(NC(=O)[C@@H]1CCCN1C(=O)[C@@H](NC(=O)OCC(C)C)C(C)C)C(=O)C(=O)NCC(=O)N[C@@H](CCCC(=O)O)C(N)=O (some centres not stated) (Isobutyloxycarbonyl-VP[X1]G[Aad]-NH2)
14 | 0.6 | CCCC(NC(=O)[C@H](CC(C)C)NC(=O)[C@@H](NC(=O)OC(C)(C)C)C1CCCCC1)C(=O)C(=O)NCC(=O)N[C@H](C(=O)OCc1ccccc1)c1ccccc1 (some centres not stated) (Boc-[Chg]L[X1]G[Phg]-OBn)
15 | > 100 | CCCC(NC(=O)[C@@H]1CCCN1C(=O)[C@@H](NC(=O)OCC(C)C)C(C)C)C(=O)C(=O)NCC(=O)N[C@@H](CCC(=O)O)C(=O)O (some centres not stated) (Isobutyloxycarbonyl-VP[X1]GE-OH)
16 | 2.1 | CCCC(NC(=O)[C@@H]1CCCN1C(=O)[C@@H](NC(=O)OCC(C)C)C(C)C)C(=O)C(=O)NCC(=O)N[C@H](C(N)=O)c1ccccc1 (some centres not stated) (Isobutyloxycarbonyl-VP[X1]G[Phg]-NH2)

Row | Ki [µM] | Compound
17 | 6.7 | CCCC(NC(=O)[C@@H]1CCCN1C(=O)[C@@H](NC(=O)OCC(C)C)C(C)C)C(=O)C(=O)NCC(=O)N[C@@H](CCc1ccccc1)C(N)=O (some centres not stated) (Isobutyloxycarbonyl-VP[X1]G[hPhe]-NH2)
18 | > 100 | CCCC(NC(=O)[C@@H]1CCCN1C(=O)[C@@H](NC(=O)OCC(C)C)C(C)C)C(=O)C(=O)NCC(=O)N[C@@H](CC(=O)O)C(=O)O (some centres not stated) (Isobutyloxycarbonyl-VP[X1]GD-OH)
19 | 8.4 | CCCC(NC(=O)[C@H](CC(C)C)NC(=O)[C@@H](NC(=O)OCC(C)C)C1CCCCC1)C(=O)C(=O)NCC(=O)N[C@@H](CC(=O)O)C(N)=O (some centres not stated) (Isobutyloxycarbonyl-[Chg]L[X1]GD-NH2)
20 | 2.6 | CCCC(NC(=O)[C@H](CC(C)C)NC(=O)[C@@H](NC(=O)OCC(C)C)C1CCCCC1)C(=O)C(=O)NCC(=O)N[C@H](C(N)=O)C(C)C (some centres not stated) (Isobutyloxycarbonyl-[Chg]L[X1]GV-NH2)
21 | 0.46 | CCCC(NC(=O)[C@H](CC(C)C)NC(=O)[C@@H](NC(=O)OCC(C)C)C1CCCCC1)C(=O)C(=O)NCC(=O)N[C@@H](COC(C)(C)C)C(N)=O (some centres not stated) (Isobutyloxycarbonyl-[Chg]L[X1]GS(tBu)-NH2)
22 | 0.33 | CCCC(NC(=O)[C@H](CC(C)C)NC(=O)[C@@H](NC(=O)OCC(C)C)C1CCCCC1)C(=O)C(=O)NCC(=O)N[C@H](C(=O)O)C1CCCC1 (some centres not stated) (Isobutyloxycarbonyl-[Chg]L[X1]G[Gly(cPent)]-OH)
23 | 2.6 | CCCC(NC(=O)[C@@H]1CCCN1C(=O)[C@@H](NC(=O)OCC(C)C)C(C)C)C(=O)C(=O)NCC(=O)N[C@H](C(N)=O)C1CCCCC1 (some centres not stated) (Isobutyloxycarbonyl-VP[X1]G[Chg]-NH2)
24 | 16 | CCCC(NC(=O)[C@@H]1CCCN1C(=O)[C@@H](NC(=O)OCC(C)C)C(C)C)C(=O)C(=O)NCC(=O)N[C@@H](CC(C)C)C(N)=O (some centres not stated) (Isobutyloxycarbonyl-VP[X1]GL-NH2)
25 | 111 | CCCC(NC(=O)[C@@H]1CCCN1C(=O)[C@@H](NC(=O)OCC(C)C)C(C)C)C(=O)C(=O)NCC(=O)N[C@@H](CCO)C(N)=O (some centres not stated) (Isobutyloxycarbonyl-VP[X1]G[hSer]-NH2)
26 | 0.098 | CCCC(NC(=O)[C@H](CC(C)C)NC(=O)[C@@H](NC(=O)OC(C)(C)C)C1CCCCC1)C(=O)C(=O)NCC(=O)N[C@H](C(=O)O)c1ccccc1 (some centres not stated) (Boc-[Chg]L[X1]G[Phg]-OH)
27 | 0.12 | CCCC(NC(=O)[C@H](CC(C)C)NC(=O)[C@@H](NC(=O)OCC(C)C)C1CCCCC1)C(=O)C(=O)NCC(=O)N[C@H](C(=O)O)c1ccccc1 (some centres not stated) (Isobutyloxycarbonyl-[Chg]L[X1]G[Phg]-OH)
28 | 0.65 | CCCC(NC(=O)[C@H](CC(C)C)NC(=O)[C@@H](NC(=O)OCC(C)C)C1CCCCC1)C(=O)C(=O)NCC(=O)N[C@H](C(=O)OC(C)(C)C)c1ccccc1 (some centres not stated) (Isobutyloxycarbonyl-[Chg]L[X1]G[Phg]-OtBu)
29 | 0.28 | CCCC[C@H](NC(=O)CNC(=O)C(=O)C(CCC)NC(=O)[C@H](CC(C)C)NC(=O)[C@@H](NC(=O)OCC(C)C)C1CCCCC1)C(N)=O (some centres not stated) (Isobutyloxycarbonyl-[Chg]L[X1]G[Nle]-NH2)
30 | 12 | CCCC(NC(=O)[C@@H]1CCCN1C(=O)[C@@H](NC(=O)OCC(C)C)C(C)C)C(=O)C(=O)NCC(=O)N[C@@H](Cc1ccc2ccccc2c1)C(N)=O (some centres not stated) (Isobutyloxycarbonyl-VP[X1]G[2Nal]-NH2)
31 | 15 | CCCC(NC(=O)[C@@H]1CCCN1C(=O)[C@@H](NC(=O)OCC(C)C)C(C)C)C(=O)C(=O)NCC(=O)N[C@H](C(=O)O)[C@@H](C)CC (some centres not stated) (Isobutyloxycarbonyl-VP[X1]GI-OH)
32 | 81 | CCCC(NC(=O)[C@H](CC(C)C)NC(=O)[C@@H](NC(=O)OC(C)(C)C)C1CCCCC1)C(=O)C(=O)NCC(=O)NCc1ccccc1 (some centres not stated)
